Source: ChEMBL document CHEMBL5365471, “Discovery of marine phidianidine-based Nrf2 activators and their potential against oxLDL- and HG-induced injury in HUVECs” (Bioorg Med Chem Lett, 2023)
Active and inactive are the calls of the source. The rule behind the calls is not given here.

Legend:
[1] = molecular target: T1, Nuclear factor erythroid 2-related factor 2 (Homo sapiens) (UniProt Q16236); experiment: Induction of Nrf2/ARE activation in human Hela cells at 20 uM measured after 12 to 24 hrs by luciferase reporter gene assay relative to control; format: cell-based; details: filed as activator, time 12-24 hrs
T1 sequence (whole entry): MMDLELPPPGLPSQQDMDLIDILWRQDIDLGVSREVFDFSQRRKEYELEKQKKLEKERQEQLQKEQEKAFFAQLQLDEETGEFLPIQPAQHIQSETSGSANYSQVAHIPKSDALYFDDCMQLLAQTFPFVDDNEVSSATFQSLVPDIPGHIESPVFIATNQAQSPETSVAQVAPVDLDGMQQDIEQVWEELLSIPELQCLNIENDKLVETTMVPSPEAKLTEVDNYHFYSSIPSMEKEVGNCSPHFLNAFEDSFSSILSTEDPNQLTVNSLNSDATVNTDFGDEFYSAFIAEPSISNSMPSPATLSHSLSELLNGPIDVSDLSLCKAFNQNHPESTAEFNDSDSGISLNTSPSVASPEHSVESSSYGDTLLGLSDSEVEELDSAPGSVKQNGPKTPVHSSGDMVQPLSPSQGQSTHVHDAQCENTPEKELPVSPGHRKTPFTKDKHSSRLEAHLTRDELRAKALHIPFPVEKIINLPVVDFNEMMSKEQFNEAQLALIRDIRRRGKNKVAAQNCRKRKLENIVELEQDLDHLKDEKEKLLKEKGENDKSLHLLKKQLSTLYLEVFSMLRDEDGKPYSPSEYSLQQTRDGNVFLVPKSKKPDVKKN

HUVEC [2] = experiment: Cytoprotective activity against high glucose induced apoptosis in HUVEC treated with scambled siRNA at 10 uM measured after 24 hrs by TUNEL assay; format: functional, cell-based; details: Homo sapiens
[3] = molecular target: T1, Nuclear factor erythroid 2-related factor 2 (Homo sapiens); experiment: Induction of Nrf2/ARE activation in human Hela cells at 5 uM measured after 12 to 24 hrs by luciferase reporter gene assay relative to control; format: cell-based; details: filed as activator, time 12-24 hrs
[4] = molecular target: T1, Nuclear factor erythroid 2-related factor 2 (Homo sapiens); experiment: Induction of Nrf2 nuclear translocation in high glucose-induced HUVEC cells at 5 to 10 uM measured after 24 hrs by immunofluorescence staining analysis; format: cell-based; details: filed as activator, dose 5-10 µM
HUVEC [5] = experiment: Cytoprotective activity against high glucose-induced apoptosis in HUVEC cells measured after 24 hrs by TUNEL assay; format: functional, cell-based; details: Homo sapiens, dose 5-10 µM
HUVEC [6] = experiment: Cytoprotective activity against high glucose-induced HUVEC cell damage assessed as increase in cell viability at 10 uM by SRB assay; format: functional, cell-based; details: Homo sapiens
HUVEC [7] = experiment: Cytotoxicity against HUVEC assessed as effect on cell viability by SRB assay; format: toxicity, cell-based; details: human
[8] = molecular target: T1, Nuclear factor erythroid 2-related factor 2 (Homo sapiens); experiment: Induction of Nrf2/ARE activation in human Hela cells at 1 uM measured after 12 to 24 hrs by luciferase reporter gene assay relative to control; format: cell-based; details: filed as activator, time 12-24 hrs
HUVEC [9] = experiment: Cytoprotective activity against oxLDL-induced apoptosis in HUVEC treated with scambled siRNA at 10 uM measured after 6 hrs by TUNEL assay; format: functional, cell-based; details: Homo sapiens
[10] = molecular target: Keap1/Nrf2 (Homo sapiens) (UniProt Q16236+Q14145); experiment: Inhibition of Keap1-Nrf2 protein-protein interaction (unknown origin) at 100 uM measured after 60 mins by FITC-betaAla-DEETGEF-OH probe based fluorescent polarization assay
Chain of Keap1/Nrf2 (Homo sapiens) (Q14145 whole entry, looked up, one chain of several): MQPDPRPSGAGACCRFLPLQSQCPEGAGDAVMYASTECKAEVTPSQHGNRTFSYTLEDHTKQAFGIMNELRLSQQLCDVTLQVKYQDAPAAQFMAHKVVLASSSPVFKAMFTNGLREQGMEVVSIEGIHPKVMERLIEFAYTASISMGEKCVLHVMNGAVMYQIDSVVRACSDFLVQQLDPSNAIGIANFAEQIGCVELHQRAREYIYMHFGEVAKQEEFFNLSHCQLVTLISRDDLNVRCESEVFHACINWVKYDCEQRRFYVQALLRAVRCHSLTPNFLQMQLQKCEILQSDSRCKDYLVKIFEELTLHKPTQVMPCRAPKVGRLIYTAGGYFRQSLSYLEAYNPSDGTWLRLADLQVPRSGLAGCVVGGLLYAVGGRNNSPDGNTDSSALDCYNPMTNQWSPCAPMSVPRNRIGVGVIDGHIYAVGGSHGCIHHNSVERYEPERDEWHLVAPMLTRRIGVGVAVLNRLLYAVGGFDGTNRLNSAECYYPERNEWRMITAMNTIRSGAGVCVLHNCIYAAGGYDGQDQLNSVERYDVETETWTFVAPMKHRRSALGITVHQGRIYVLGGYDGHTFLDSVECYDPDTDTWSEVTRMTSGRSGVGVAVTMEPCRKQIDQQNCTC

HUVEC [11] = experiment: Cytoprotective activity against oxLDL-induced HUVEC cell damage assessed as increase in cell viability at 10 uM by SRB assay; format: functional, cell-based; details: Homo sapiens
HUVEC [12] = experiment: Cytoprotective activity against high glucose-induced apoptosis in Nrf2-knockdown HUVEC at 10 uM measured after 24 hrs by TUNEL assay; format: functional, cell-based; details: Homo sapiens
[13] = molecular target: T1, Nuclear factor erythroid 2-related factor 2 (Homo sapiens); experiment: Induction of Nrf2/ARE activation in human Hela cells at 10 uM measured after 12 to 24 hrs by luciferase reporter gene assay relative to control; format: cell-based; details: filed as activator, time 12-24 hrs
HUVEC [14] = experiment: Cytoprotective activity against oxLDL-induced apoptosis in HUVEC cells measured after 6 hrs by TUNEL assay; format: functional, cell-based; details: Homo sapiens, dose 5-10 µM
HUVEC [15] = experiment: Cytoprotective activity against oxLDL-induced apoptosis in Nrf2-knockdown HUVEC at 10 uM measured after 6 hrs by TUNEL assay; format: functional, cell-based; details: Homo sapiens
[16] = molecular target: T1, Nuclear factor erythroid 2-related factor 2 (Homo sapiens); experiment: Induction of Nrf2 nuclear translocation in oxLDL-induced HUVEC cells at 5 to 10 uM measured after 6 hrs by immunofluorescence staining analysis; format: cell-based; details: filed as activator, dose 5-10 µM

COc1ccc(/C=C/C(=O)N2CCN(Cc3noc(Cc4c[nH]c5ccccc45)n3)CC2)cc1O
fold change (FC) [1]: 7.41
Activity (HUVEC [2]): Active
fold change (FC) [3]: 3.69
Activity [4]: Active
Activity (HUVEC [5]): Dose-Dependent Effect
Activity (HUVEC [6]): Active
Activity (HUVEC [7]): Non-Toxic
fold change (FC) [8]: 1.89
Activity (HUVEC [9]): Active
inhibition [10]: inactive
Activity (HUVEC [11]): Active
Activity (HUVEC [12]): inactive
fold change (FC) [13]: 7.78
Activity (HUVEC [14]): Dose-Dependent Effect
Activity (HUVEC [15]): inactive
Activity [16]: Active

N#Cc1ccc(CN2CCN(Cc3noc(Cc4c[nH]c5ccccc45)n3)CC2)cc1
fold change (FC) [1]: 5.18
fold change (FC) [3]: 3.14
Activity [4]: Active
Activity (HUVEC [5]): Dose-Dependent Effect
Activity (HUVEC [6]): Active
Activity (HUVEC [7]): Non-Toxic
fold change (FC) [8]: 1.38
Activity (HUVEC [11]): Active
fold change (FC) [13]: 5.88
Activity (HUVEC [14]): Dose-Dependent Effect
Activity [16]: Active
